Values quoted from earlier work as cited in patent publication US6506736B1, “Method for obtaining and using a combination of a purine nucleotide and nitrogen monoxide donor for treating sexual dysfunction” (priority 1998, dated 2003).

Key:
erectile dysfunction = details: 2800 mg L-arginine per day
erection = details: dogs; intravenous injection

| Structure (SMILES) | cases with favorable effect on erectile dysfunction (erectile dysfunction) | induction of erection (erection) |
| --- | --- | --- |
| N=C(N)NCCC[C@H](N)C(=O)O [L-arginine] | approximately 40% |  |
| Nc1ncnc2c1ncn2[C@@H]1O[C@H](COP(=O)(O)OP(=O)(O)OP(=O)(O)O)[C@@H](O)[C@H]1O [adenosine triphosphate] |  | induces erection |
